For data set [1] the following is noted: dog, in vivo, po, 27 mg/kg. The procedure:
(I) Beagle dogs are selected as experimental animals, six dogs per group. 2-butyl-4-chloro-1-[2′-(1H-tetrazol-5-yl) 1,1′-biphenyl-methyl]imidazole-5-carboxylic acid, 1-[(isopropoxy)carbonyloxy]methyl ester suspended in physiologic saline is administered in single dose of drug by gavage in dosage level of 3.0 mg/kg, 9.0 mg/kg, and 27 mg/kg. Blood samples were drawn for each dosage group at set time point. […] Determine the level of the active metabolite in plasma, calculate EXP3174's pharmacokinetic parameters according to the concentration-time curve, and investigate the correlation between dosage and main pharmacokinetic parameters Cmax and AUC0-t.

Data set [2] concerns spontaneously hypertensive rat (SHR). Put plainly: Blood pressure in spontaneously hypertensive rat after gavage. It is filed as in vivo. Particulars: for blood pressure decrease: SHR, dispersed in physiologic saline.

This is an account of results in patent US8138214B2, “Pharmaceutical composition” (Shanghai Allist Pharmaceutical, Inc., priority 2007, dated 2012).

For the molecule `CCCCc1nc(Cl)c(C(=O)OCOC(=O)OC(C)C)n1Cc1ccc(-c2ccccc2-c2nnn[nH]2)cc1` [Compound I, 2-butyl-4-chloro-1-[2′-(1H-tetrazol-5-yl)1,1′-biphenyl-methyl]imidazole-5-carboxylic acid, 1-[(isopropoxy)carbonyloxy]methyl ester], the “correlation between dosage and Cmax and AUC0-t of EXP3174” value in data set [1] was “proportional to the dosage”. The results for the blood pressure decrease in data set [2] (15 mg/kg by gavage) and in data set [2] (30 mg/kg by gavage) were 10 mm of mercury column and 20 mm of mercury column, respectively. In data set [2] (rats, oral dosage no less than 15 mg/kg), the antihypertensive effect result is listed as “significant antihypertensive effect”.
